Measurements taken from article PMC12254266, “Multicolored sequential resonance energy transfer for detection of simultaneous ligand binding at G protein-coupled receptors” (Nature Communications, 2025).
Where “and” joins values, the source holds several entries; their conditions need not be identical. Identical values can stand only once. Like-named read-outs stand apart in the source and are kept apart here.

Key:
Nluc-FFA1 = biological target: T1, Nluc-FFA1 (Homo sapiens, UniProt O14842); experiment: NanoBRET binding (saturation, competition, kinetics) at N terminal Nluc tagged FFA1
T1 construct: expressed in transfected cells
T1 sequence (O14842 whole entry): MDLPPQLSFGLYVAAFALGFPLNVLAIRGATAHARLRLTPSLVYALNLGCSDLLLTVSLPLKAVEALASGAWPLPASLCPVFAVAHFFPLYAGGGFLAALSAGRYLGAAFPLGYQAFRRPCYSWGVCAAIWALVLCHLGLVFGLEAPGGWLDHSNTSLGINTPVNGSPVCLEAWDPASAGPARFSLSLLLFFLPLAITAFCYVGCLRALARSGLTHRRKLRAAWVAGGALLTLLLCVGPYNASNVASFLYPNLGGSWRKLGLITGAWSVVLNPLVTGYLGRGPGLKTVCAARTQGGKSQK
Procedure: (§1) Nluc-FFA1 or FFA1-Nluc Flp-In T-REx 293 cells were plated at 50,000 cells per well in poly-D-lysine coated white 96-well plates. Cells were cultured for 24 h in the plate before medium was replaced with medium containing 100 ng/mL of doxycycline to induce receptor expression. After culturing for a further 24 h, medium was removed, cells were washed with HBSS and incubated in HBSS for 30 min. To start the assay, NanoGlo substrate (Promega, N1110) was added to the cells at a 1:800 final dilution and incubated for 10 min at 37 °C. For endpoint assays, including both saturation and competition binding, test ligands were then added, including both fluorescent and unlabelled competing ligands as indicated, and plates incubated for a further 5 min at 37 °C. NanoBRET was then quantified in a CLARIOstar microplate reader (BMG Labtech) by measuring luminescent emission with the monochrometer set for the Nluc donor at 450–60 nm, and acceptor luminescent emission 540–60 nm (NBD), 600–80 nm (Cy3.5) or 690–100 nm (SulfoCy5), depending on which fluorophore was being tested. The acceptor/donor BRET ratio was then taken as a measure of fluorophore binding. For kinetic on then off NanoBRET experiments plates were washed the same way and substrate was added to the same concentration. However, 10 min after substrate was added plates were inserted into the CLARIOstar microplate reader set to 25 °C to take repeated measurements of luminescent emission for both the donor and the acceptor fluorophore being used. After 5 min of background measurements, the indicated concentration of fluorescent ligand was added using the plate reader injector and luminescent emission was monitored for ~10 min before the reader was paused to manually add a high concentration of appropriate competing ligand to initiate dissociation. The plate was returned to the reader and luminescence measurements were continued for a further 30 min to monitor dissociation of the fluorescent ligand. For kinetic experiments using multiple concentrations of fluorescent ligand, cells were placed in the plate reader immediately after the addition of Nano-Glo substrate and luminescent measurements were taken. After 5 min, the reader was paused to add the indicated concentrations of fluorescent ligand, before measurements were continued. To set non-specific binding for kinetic experiments, the indicated competing ligand was added 5 min before the addition of the fluorescent ligand.

FFA1-Nluc = FFA1-Nluc (Homo sapiens, UniProt O14842); experiment: NanoBRET binding (saturation, kinetics) at C terminal Nluc tagged FFA1; design: expressed in transfected cells; settings: for Specific BRET (%): Sup Fig 7B
Sequence of FFA1-Nluc (O14842 whole entry): as above
Procedure: as §1

FFA1 = FFA1 (Homo sapiens, UniProt O14842); experiment: Ca2+ mobilisation (Fura2) in Flp-In T-REx 293 cells expressing Nluc-FFA1, FFA1-Nluc or untagged FFA1; type: cell-based; design: expressed in transfected cells; settings: for Ca2+ Response as a % of T360 Response: single technical replicates
Sequence of FFA1 (O14842 whole entry): as above
Procedure: Nluc-FFA1, FFA1-Nluc or untagged FFA1 Flp-In T-REx 293 cells were plated at 50,000 cells per well in poly-D-lysine coated black clear bottom 96-well plates. Cells were then cultured for 24 h until reaching confluency before culture medium was replaced with medium containing 100 ng/mL of doxycycline to induce receptor expression. Cells were cultured for a further 24 h before the assay. On the day of the assay culture medium was removed and replaced with medium containing 3 μM Fura2-AM Ca^2+ dye. […] Fura2 fluorescent emission at 520 nm following excitation with each of 340 and 380 nm was measured in regular intervals both before and after adding test compounds for a total of 90 s per well. Calcium responses were determined by taking the peak 340/380 ratio after first subtracting the ratios obtained prior to addition of test compound.

Kd (Nluc-FFA1; footnotes of Supplementary Table 3, read-out: Kd values obtained in NanoBRET saturation experiments (used for pKi) (converted))	Specific BRET (%) (FFA1-Nluc; [TUG-2884] 4 μM, technical duplicates)	Kd (Nluc-FFA1; Nluc-FFA1, 95% confidence interval in parentheses, read-out: Kd, saturation BRET binding)	activity in Ca2+ assays (FFA1; in words)	Kd (FFA1-Nluc; FFA1-Nluc, 95% confidence interval in parentheses, read-out: Kd, saturation BRET binding)	BMax, saturation BRET binding (FFA1-Nluc; FFA1-Nluc, specific BRET, 95% confidence interval in parentheses)	Compound	Specific BRET (%) (FFA1-Nluc; [TUG-2884] 1 μM)	Specific BRET (%) (FFA1-Nluc; [TUG-2884] 2 μM)	Ca2+ Response as a % of T360 Response (FFA1; log[Ligand] -5.5)	Ca2+ Response as a % of T360 Response (FFA1; log[Ligand] -6)	Ca2+ Response as a % of T360 Response (FFA1; log[Ligand] -6.5)	Ca2+ Response as a % of T360 Response (FFA1; log[Ligand] -7)	Ca2+ Response as a % of T360 Response (FFA1; log[Ligand] -8)	Ca2+ Response as a % of T360 Response (FFA1; log[Ligand] -9)
940 nM	96.6176% and 103.382%					CCCN1C(=O)c2ccccc2[C@@H](C(=O)O)[C@@H]1c1ccc(OCc2cccc(-c3ccc(OCCOCCNc4ccc([N+](=O)[O-])c5nonc45)cc3C)c2)cc1 [TUG-2884]	60.2367% and 75.4193% and 48.9635% and 51.5087% and 65.0111% and 65.7411%	98.0293% and 80.378% and 57.5363% and 68.9417% and 80.7303% and 88.1476%						
		200 nM	no measurable activity	25 nM	0.007 (0.005−0.01)	Cc1cc(OCCOCCNC(=O)CCCCC[N+]2=C(/C=C/C=C3/N(C)c4ccc5ccccc5c4C3(C)C)C(C)(C)c3c2ccc2ccccc32)ccc1-c1cccc(COc2ccc(CCC(=O)O)c(F)c2)c1.O=C([O-])C(F)(F)F [TUG-2287]			17.83% and 27.69% and 20.05% and -0.41% and 1.34% and 0.65%	5.00% and 8.24% and 2.11% and -0.20% and 0.45% and 0.71%	1.48% and 8.34% and 1.53% and -0.18% and -0.52% and -0.47%	0.96% and 2.49% and 1.27% and 0.43% and 0.51% and 0.58%	2.24% and 3.57% and 0.05% and 1.00% and 0.97% and 1.13%	1.37% and 5.16% and 0.91% and -0.52% and -0.36% and 0.88%
